Read-outs that look alike come from different tables or passages of the source.
Assays:
Type in all cases: cell-based
[1] = test system: HCC-1937 line (primary ductam breast carcinoma cell line); assay: Cell proliferation (ATPLite) on HCC-1937 line; conditions: read 48 hours after treatment
Experimental: (§1) The lines N1E115 (ATCC, CRL2263), MDA-MB-231 (ATCC, HTB26) and HSC-1 (Health Science Research Resources Bank, JCRB1015) were cultured in DMEM medium (Dulbecco's Modified Eagle Medium) supplemented with 2 mM of L-Glutamine (Sigma, G7513) and 10% foetal calf serum (Hyclone, SH30109.03) or 20% for the HSC-1 cells. The HCC-1937 (ATCC, CRL2336) and A549 (ATCC, CCL185) lines were cultured in RPMI medium (Roswell Park Memorial Institute Medium) supplemented with 10% foetal calf serum and 2 mM of L-Glutamine. Finally, the SCC114 (DSMZ, ACC662) line was cultured in MEM medium (Minimum Essential Medium Eagle) supplemented with 10% foetal calf serum and 2 mM of L-Glutamine. Initially, in 96-well plates (Perkin Elmer, 6005668), the cells were seeded in their respective culture media with 750 cells per well for N1E115; 1000 cells per well for SCC114 and A549; 2000 cells per well for HCC-1937 and HSC-1; 2500 cells per well for MDA-MB-231. Cascade dilution of each compound was performed in dimethylsulfoxide (DMSO) (Sigma, D8418) from 10 mM stock solutions in 100% DMSO. Each of the dilutions was added to the cells 24 hours after seeding. Under these conditions the final solvent concentration was 0.1% DMSO. Reading of cell proliferation was conducted 72 hours after addition of products with the ATPLite kit (Perkin Elmer, 6016947) and following the manufacturer's directions except in the case of the HCC-1937 line for which this reading was carried out 48 hours after treatment. Analysis of proliferation results was performed by comparing with conditions in which solely the vehicle was added to the cells. The dose-response curves obtained were analysed using Prism 4.03 software (GraphPad Software Inc.) to determine the concentration of each compound allowing 50% inhibition of cell proliferation (IC50).
(§2) As examples, the cytotoxic properties of some compounds of the invention evaluated on the lines A549 (lung cancer cell line), MDA-MB-231 line (mammary adenocarcinoma cell line), N1E115 (mouse brain neuroblastoma cell line), HCC-1937 line (primary ductam breast carcinoma cell line), HSC-1 (cutaneous squamous carcinoma cell line) and SCC114 line (oral squamous carcinoma cell line) are reported in Table 1, as compared with griseofulvin used as control product. The concentration values are expressed in micromolar units (μM).

[2] = test system: SCC114 line (oral squamous carcinoma cell line); assay: Cell proliferation (ATPLite) on SCC114 line; conditions: read 72 hours after addition
Experimental: as §1, §2

[3] = test system: HSC-1 (cutaneous squamous carcinoma cell line); assay: Cell proliferation (ATPLite) on HSC-1 line; conditions: 50% inhibition of cell proliferation, read 72 hours after addition
Experimental: as §1, §2

[4] = test system: MDA-MB-231 line (mammary adenocarcinoma cell line); assay: Cell proliferation (ATPLite) on MDA-MB-231 line; conditions: read 72 hours after addition
Experimental: as §1, §2

[5] = test system: A549 (lung cancer cell line); assay: Cell proliferation (ATPLite) on A549 line; conditions: read 72 hours after addition
Experimental: as §1, §2

[6] = test system: N1E115 (mouse brain neuroblastoma cell line); assay: Cell proliferation (ATPLite) on N1E115 line; conditions: 50% inhibition of cell proliferation, read 72 hours after addition, read-out: IC50 (μM) N1E-115
Experimental: as §1, §2

[7] = 50% inhibition of cell proliferation, read-out: IC50 (μM) HCC1937
[8] = 50% inhibition of cell proliferation
[9] = Homo sapiens, HCC1937, 50% inhibition of cell proliferation
[10] = SCC114, 50% inhibition of cell proliferation
[11] = Homo sapiens, MDA-MB-231, 50% inhibition of cell proliferation

Compound	IC50 [1, 7]	IC50 [2, 8]	IC50 [3]	IC50 [4, 8]	IC50 [5, 8]	IC50 [6]	IC50 [1, 9]	IC50 [2, 10]	IC50 [4, 11]	IC50 ([5]; Homo sapiens, A549, 50% inhibition of cell proliferation)
COc1cc(OC)c2c(c1Cl)O[C@]1(C2=O)C2=C(C[C@](CCCCO)(c3ccccc3)O2)C(=O)C[C@H]1C [compound 14, (2 S,2′S,6R)-7′-chloro-2-(4-hydroxybutyl)-4′,6′-dimethoxy-6-methyl-2-phenyl-5,6-dihydro-2H,3′H-2,7′-spirobi[benzofuran]-3′,4(3H)-dione]	> 10 µM	0.74 µM	0.86 µM	0.46 µM	0.44 µM	–	–	–	–	–
COc1cc(OC)c2c(c1Cl)O[C@]1(C2=O)C2=C(C[C@](C)(c3ccccc3)O2)C(=O)C[C@H]1C [compound 5, (2R,2′S,6R)-7′-chloro-4′,6′-dimethoxy-2,6-dimethyl-2-phenyl-5,6-dihydro-2H,3′H-2,7′-spirobi[benzofuran]-3′,4(3H)-dione]	> 10 µM	0.38 µM	–	0.86 µM	0.95 µM	0.25 µM	–	–	–	–
COC(=O)c1cc(-c2ccc(F)cc2)c2c(n1)C[C@@H](C)[C@]1(Oc3c(Cl)c(OC)cc(OC)c3C1=O)C2=O [compound 164, (2S,7′R)-methyl 7-chloro-4′-(4-fluorophenyl)-4,6-dimethoxy-7′-methyl-3,5′-dioxo-7′,8′-dihydro-3H,5′H-spiro[benzofuran-2,6′-quinoline]-2′-carboxylate]	–	–	> 10 µM	–	–	–	> 10 µM	0.43 µM	1.4 µM	0.45 µM
COc1cc(OC)c2c(c1Cl)O[C@]1(C2=O)C(=O)c2c(nn(C)c2-c2ccccc2C(F)(F)F)C[C@H]1C [compound 135, (2S,3′S,6′R)-7-chloro-4,6-dimethoxy-2′,6′-dimethyl-3′-(2-(trifluoromethyl)phenyl)-6′,7′-dihydro-3H-spiro[benzofuran-2,5′-indazole]-3,4′(2′H)-dione]	–	0.51 µM	1.3 µM	–	–	–	–	–	–	–
COc1cc(OC)c2c(c1Cl)O[C@]1(C2=O)C(O)c2c(-c3ccccc3)cc(C(=O)OC(C)C)nc2C[C@H]1C (stereo partly drawn) [compound 257, (2S,7′R)-isopropyl 7-chloro-5′-hydroxy-4,6-dimethoxy-7′-methyl-3-oxo-4′-phenyl-7′,8′-dihydro-3H,5′H-spiro[benzofuran-2,6′-quinoline]-2′-carboxylate]	–	–	2.4 µM	–	–	–	> 10 µM	0.51 µM	0.43 µM	–
COc1cc(OC)c2c(c1Cl)O[C@]1(C2=O)C(N(C)CCN(C)c2ccccn2)=CC(=O)C[C@H]1C [compound 205, (1′S,6′R)-7-chloro-4,6-dimethoxy-6′-methyl-2′-(methyl(2-(methyl(pyridin-2-yl)amino)ethyl)amino)-3H-spiro[benzofuran-2,1′-cyclohex[2]ene]-3,4′-dione]	–	0.62 µM	> 10 µM	–	9.2 µM	–	–	–	–	–
COc1cc(OC)c2c(c1Cl)O[C@]1(C2=O)C(=O)c2c(nn(C)c2-c2ccccc2Cl)C[C@H]1C [compound 115, (2S,6′R)-7-chloro-3′-(2-chlorophenyl)-4,6-dimethoxy-2′,6′-dimethyl-6′,7′-dihydro-3H-spiro[benzofuran-2,5′-indazole]-3,4′(2′H)-dione]	–	–	1.3 µM	–	–	–	> 10 µM	0.73 µM	0.64 µM	–
COc1cc(OC)c2c(c1Cl)O[C@]1(C2=O)C(=O)c2c(nn(C)c2-c2ccccc2Cl)C[C@H]1C [compound 126, (2S,3′R,6′R)-7-chloro-3′-(2-chlorophenyl)-4,6-dimethoxy-2′,6′-dimethyl-6′,7′-dihydro-3H-spiro[benzofuran-2,5′-indazole]-3,4′(2′H)-dione]	–	0.73 µM	2.3 µM	–	–	–	–	–	–	–
COc1cc(OC)c2c(c1Cl)O[C@]1(C2=O)C2=C(C[C@H](c3ccccc3F)O2)C(=O)C[C@H]1C [compound 37, (2R,2′S,6R)-7′-chloro-2-(2-fluorophenyl)-4′,6′-dimethoxy-6-methyl-5,6-dihydro-2H,3′H-2,7′-spirobi[benzofuran]-3′,4(3H)-dione]	> 10 µM	0.47 µM	1.4 µM	0.27 µM	–	–	–	–	–	–

Further lines, results first:

IC50 [1, 7]	IC50 [2, 8]	IC50 [3]	IC50 [4, 8]	IC50 [5, 8]	IC50 [6]	IC50 [1, 9]	IC50 [2, 10]	IC50 [4, 11]	IC50 ([5]; Homo sapiens, A549, 50% inhibition of cell proliferation)	Compound
–	0.14 µM	0.25 µM	–	–	–	–	–	–	–	COc1cc(OC)c2c(c1Cl)O[C@]1(C2=O)C(=O)c2c(nn(C)c2-c2ccccc2Br)C[C@H]1C [compound 130, (2S,3′S,6′R)-7-chloro-3′-(2-bromophenyl)-4,6-dimethoxy-2′,6′-dimethyl-6′,7′-dihydro-3H-spiro[benzofuran-2,5′-indazole]-3,4′(2′H)-dione]
> 10 µM	0.21 µM	0.45 µM	0.18 µM	0.072 µM	–	–	–	–	–	COc1cc(OC)c2c(c1Cl)O[C@]1(C2=O)C2=C(C[C@H](c3ccc(F)cc3)O2)C(=O)C[C@H]1C [compound 34, (2R,2′S,6R)-7′-chloro-2-(4-fluorophenyl)-4′,6′-dimethoxy-6-methyl-5,6-dihydro-2H,3′H-2,7′-spirobi[benzofuran]-3′,4(3H)-dione]
> 10 µM	0.57 µM	0.79 µM	–	0.86 µM	0.22 µM	–	–	–	–	COc1cc(OC)c2c(c1Cl)O[C@]1(C2=O)C2=C(C[C@@](CCO)(c3ccccc3)O2)C(=O)C[C@H]1C [compound 46, (2R,2′S,6R)-7′-chloro-2-(2-hydroxyethyl)-4′,6′-dimethoxy-6-methyl-2-phenyl-5,6-dihydro-2H,3′H-2,7′-spirobi[benzofuran]-3′,4(3H)-dione]
–	–	0.84 µM	–	–	–	> 10 µM	0.51 µM	0.33 µM	–	COC(=O)c1cc(-c2ccc(F)cc2)c2c(n1)C[C@@H](C)[C@]1(Oc3c(Cl)c(OC)cc(OC)c3C1=O)C2O (stereo partly drawn) [compound 256, (2S,7′R)-methyl 7-chloro-4′-(4-fluorophenyl)-5′-hydroxy-4,6-dimethoxy-7′-methyl-3-oxo-7′,8′-dihydro-3H,5′H-spiro[benzofuran-2,6′-quinoline]-2′-carboxylate]
> 10 µM	0.17 µM	0.38 µM	0.25 µM	–	–	–	–	–	–	COc1cc(OC)c2c(c1Cl)O[C@]1(C2=O)C2=C(C[C@@H](c3ccc(F)cc3)O2)C(=O)C[C@H]1C [compound 35, (2S,2′S,6R)-7′-chloro-2-(4-fluorophenyl)-4′,6′-dimethoxy-6-methyl-5,6-dihydro-2H,3′H-2,7′-spirobi[benzofuran]-3′,4(3H)-dione]
–	–	0.5 µM	–	–	–	> 10 µM	0.23 µM	0.17 µM	–	COC(=O)C1=C[C@H](c2ccsc2)C2=C(C[C@@H](C)[C@]3(Oc4c(Cl)c(OC)cc(OC)c4C3=O)C2=O)N1 [compound 165, (2S,4′S,7′R)-methyl 7-chloro-4,6-dimethoxy-7′-methyl-3,5′-dioxo-4′-(thiophen-3-yl)-4′,5′,7′,8′-tetrahydro-1′H,3H-spiro[benzofuran-2,6′-quinoline]-2′-carboxylate]
–	0.021 µM	0.14 µM	–	–	–	–	–	–	–	COc1cc(OC)c2c(c1Cl)O[C@@]1(C=C([S+]([O-])Cc3ccccc3)C(=O)C[C@H]1C)C2=O (stereo partly drawn) [compound 97, (1′S,6′R)-3′-(benzylsulfinyl)-7-chloro-4,6-dimethoxy-6′-methyl-3H-spiro[benzofuran-2,1′-cyclohex[2]ene]-3,4′-dione]
–	–	0.77 µM	–	–	–	> 10 µM	0.38 µM	0.22 µM	–	COC(=O)c1cc(-c2ccsc2)c2c(n1)C[C@@H](C)[C@]1(Oc3c(Cl)c(OC)cc(OC)c3C1=O)C2O (stereo partly drawn) [compound 255, (2S,7′R)-methyl 7-chloro-5′-hydroxy-4,6-dimethoxy-7′-methyl-3-oxo-4′-(thiophen-3-yl)-7′,8′-dihydro-3H,5′H-spiro[benzofuran-2,6′-quinoline]-2′-carboxylate]
–	0.41 µM	0.76 µM	–	–	–	–	–	–	–	COc1cc(OC)c2c(c1Cl)O[C@@]1(C=C(S(=O)(=O)c3ccccc3)C(=O)C[C@H]1C)C2=O [compound 98, (1′S,6′R)-7-chloro-4,6-dimethoxy-6′-methyl-3′-(phenylsulfonyl)-3H-spiro[benzofuran-2,1′-cyclohex[2]ene]-3,4′-dione]

Source: US9416143B2, “Griseofulvin derivatives” (PIERRE FABRE MEDICAMENT, priority 2012, dated 2016)
